Source: PMC8261488, “Contraceptive progestins with androgenic properties stimulate breast epithelial cell proliferation” (EMBO Molecular Medicine, 2021)

Key:
[1] = test system: endogenous hormone levels in mice; assay: Endogenous steroid hormone plasma levels in treated host mice by LC-MS; type: in vivo, mouse; details: xenografted NSG females with pellets
Description: Next, we assessed whether progesterone and progestins differentially affected endogenous hormone levels in mice. Plasma 17‐β‐estradiol levels were not affected by any of the treatments (Fig 4H). […] Plasma testosterone levels were not altered by any treatment with the exception of DSP, which decreased them (Fig 4H). Thus, prolonged exposures to progestins differentially affect endogenous progesterone plasma levels and DSP decreases testosterone plasma levels in host mice.

HBECs [2] = assay: In vivo growth of intraductal HBEC xenografts measured by radiance; details: 60 days of treatment, subcutaneous pellets
Description: To compare the effects of progesterone and different progestins on HBECs in vivo, we infected single cell suspensions obtained from fresh reduction mammoplasty specimens with GFP‐luciferase2‐expressing lentiviruses. The infected cell mixture was grafted intraductally to up to 5 glands of as many recipients as possible. The engraftment and growth of the xenografted cells were monitored weekly by in vivo imaging. When radiance reached > 10E07 on average per mammary gland, 60‐day‐release pellets were implanted subcutaneously, usually within 3–10 weeks after cell injection. At sacrifice, blood was collected and plasma levels of the administered compounds as well as endogenous steroid hormones were determined by liquid chromatography‐mass spectrometry (LC‐MS) (Laszlo et al, 2019).
Next, the in vivo growth of HBEC xenografts stimulated with progesterone or different progestins was analyzed. […] In addition, the fold change radiance of treated versus untreated samples at endpoint was calculated (Fig 5A–C).
Mice were anesthetized by intraperitoneal injection with 10 mg/kg xylazine and 90 mg/kg ketamine (Graeub) and injected intraductally with 10 μl cell suspension per gland. Bioluminescence imaging was performed as described (Sflomos et al, 2016). After 3–10 weeks, when bioluminescence from individual glands reached 10^7 total flux (p/s/cm2/sr), animals were assigned to different treatment groups and hormone pellets implanted subcutaneously. Enzalutamide (Selleckchem, Catalog No. S1250) dissolved in 15% DMSO in PEG300 was injected intraperitoneally 3 times/week at 30 mg/kg.
Pellets were prepared by mixing the required amount of part A, MP3745/E81949 and part B, MP3744/E81950 of low consistency silicon elastomer (MED‐4011) and hormone powder to homogeneity. Mix was transferred to a syringe and incubated at 37°C overnight. The silicon‐hormone mass was removed from the syringe and cut to pieces, as described (Duss et al, 2007). The original protocol was adapted for different doses as described below.

Wnt4 = Wnt4 transcript levels by RT-PCR in mouse mammary organoids stimulated ex vivo; type: cell-based; details: for Wnt4 transcript levels over vehicle-treated control: BalbC females, 6 h of stimulation
Method: (§1) Next, we stimulated mouse mammary organoids derived from several BalbC females with R5020 or different progestins (Fig 1A). […] No significant change in Rankl and Wnt4 transcript levels was detected during the first 2 h (Appendix Fig S1D). By 6 h of R5020 stimulation, Rankl and Wnt4 transcript levels increased 22.4 and 5.8‐fold over the vehicle‐treated control, respectively.
(§2) Animal experiments were performed in accordance with protocol approved by the Service de la Consommation et des Affaires vétérinaires of Canton de Vaud (VD 1865.3, VD 1865.4). NOD. Cg‐Prkdc^scid Il2rg^tm1Wjl/SzJ mice (Charles River), BalbC, and C57Bl6 breeders were purchased from Jackson Laboratories. Mammary glands were isolated from 18‐ to 35‐week‐old mice, lymph nodes removed, minced with surgical blades, and digested in DMEM/F12, 1% penicillin/streptomycin B with collagenase A 0.25 mg/ml (Roche). […] Fat was removed, and pellet containing organoids washed with phosphate‐buffered saline (PBS), resuspended 5 min in 3 ml red cell blood lysis buffer and washed twice with PBS.
(§3) Human breast microstructures and mouse organoids were homogenized in Trizol (Invitrogen). Aqueous phase containing RNA was chloroform extracted and processed with miRNeasy extraction kit (Qiagen). cDNA was synthesized using random p(dN)6 primers (Roche) and MMLV reverse transcriptase (Invitrogen). SYBR Green PCR Core Reagent System (Qiagen) was used for semi‐quantitative real time (RT‐PCR) using the following primers.

Rankl = Rankl transcript levels by RT-PCR in mouse mammary organoids stimulated ex vivo; type: cell-based; details: for Rankl transcript levels over vehicle-treated control: BalbC females, 6 h of stimulation
Method: as §1, §2, §3

HBECs [3] = assay: MKI67/Ki67 expression in xenografted HBECs; type: in vivo, human; details: 21 days pellets; for cell proliferation (KI67 and hECAD double+ cells), overall analysis: HBECs from 11 different patients; for cell proliferation (KI67 and hECAD double+ cells): one mammoplasty (M310)
Description: (§4) Next, we sought for a readout of in vivo cell proliferation different from radiance. […] Given that MKI67 expression could replace the luciferase measurements as a readout, we used a modified experimental setup for a second round of experiments. We derived HBECs from viably frozen mammoplasty samples (Appendix Table S3) and engrafted them to different mammary glands of NSG females without viral infection. Four months later, the 24 recipient females, each engrafted with 5 different mammoplasties received pellets containing either vehicle, progesterone, or 1 of 6 progestins for 21 days. At sacrifice, xenografted glands were histologically sectioned and cell proliferation was quantified using co‐IF with anti‐MKI67 and anti‐hECAD antibodies. For one of the mammoplasties, we were able to obtain measurements for all experimental conditions (Fig 5I). […] For the remaining mammoplasties, between 3 and 8 different experimental conditions were successfully quantified (Appendix Table S4). […] CPA (P < 0.0001) decreased proliferation, whereas CMA and DSP had no effect (Fig 5K). As AR signaling increases AR protein levels, we performed co‐IF for AR and hECAD as another means to assess AR signaling activity.
(§5) Tissues were fixed for 2 h at room temperature in 4% paraformaldehyde and paraffin‐embedded. Dewaxed and rehydrated paraffin sections were pretreated in 10 mM Na citrate (pH 6.0) at 95° for 20 min. Blocking was performed with 1% BSA for 60 min. Primary antibodies used were as follows: Ki67 (rabbit α‐Ki67, clone Sp6, Spring Amsbio, dilution 1:200), ER (rabbit α‐ER, clone Sp1, Zytomed RTU), PR (rabbit α‐PR, clone 1E2, Ventana RTU), AR (rabbit α‐AR, clone SP107, Thermo Fisher, diluted 1:200), CK7 (rabbit α‐CK7, clone Sp52, Abcam, diluted 1:500), CK19 (mouse KS19.2 (Z105.6), American Research Products Inc. (diluted 1:50), and mouse α‐ECAD (clone G‐10, sc‐8426, diluted 1:100). For IHC, chromogenic revelation was performed with ChromoMap DAB kit (Roche Diagnostics, Switzerland) and sections were counterstained with Mayer’s hematoxylin. For fluorescence microscopy, nuclei were counterstained with DAPI (Sigma). IHC for ER, PR, and AR was performed on Discovery Ventana ULTRA (44). IHC images were acquired on Leica DM 2000 with Leica DFC450 C camera. IF images were acquired on Zeiss LSM700 confocal microscope. Slides were scanned with Olympus VS120‐L100 slide scanner with 20×/0.75 objective and Pike F505 C Color camera. Images were loaded into QuPath using the BioFormats extension (Bankhead et al, 2017).

AR [4] = test system: AR; design: method as in earlier work; details: various assays, ref Fuhrmann et al, 1995, Muhn et al, Bouchard, 2005, Mishell, 2008, Schneider et al, 2009, Africander et al, 2011, Louw‐du Toit et al, 2017; cited from earlier work
AR [5] = assay: Percentage of AR+ cells in xenografted HBECs by co-IF for AR and hECAD; type: in vivo, human; details: 21 days pellets, HBECs from 11 different patients
Description: as §4, §5

[6] = BalbC-derived organoids, 24 h of stimulation

SMILES | endogenous progesterone plasma levels (estrous cycle-related variation) [1] | growth (course of radiance) of engrafted HBECs versus control (HBECs [2]) | relative radiance at endpoint over control (FC) (HBECs [2]) | Wnt4 transcript levels over vehicle-treated control (Wnt4) | Wnt4 transcript induction (Wnt4; [6]) | Wnt4 transcript induction (Wnt4; C57Bl/6 mice, 6 h, 20 nM) | Rankl transcript levels over vehicle-treated control (Rankl) | Rankl transcript induction (Rankl; [6]) | Rankl transcript induction (Rankl; C57Bl/6 mice, 6 h, 20 nM) | cell proliferation (KI67 and hECAD double+ cells), overall analysis (HBECs [3]) | cell proliferation (KI67 and hECAD double+ cells) (HBECs [3]) | androgenic / anti-androgenic activity (AR [4]) | percentage of AR+ cells (AR index) (AR [5]) | plasma testosterone levels [1]
CC(=O)O[C@]1(C(C)=O)CC[C@H]2[C@@H]3C=C(Cl)C4=CC(=O)CC[C@]4(C)[C@H]3CC[C@@]21C [CMA, chlormadinone acetate] | tendency toward higher average level of progesterone | Neither CMA nor CPA had any effect on the growth | 0.7 fold | did not alter Wnt4 transcript levels | no effect | did not alter Wnt4 transcript levels | failed to affect Rankl transcript levels at all | no effect | failed to increase Rankl transcript levels | no effect | no effect | anti‐androgenic activity | no effect | –
CC(=O)O[C@]1(C(C)=O)CC[C@H]2[C@@H]3C=C(Cl)C4=CC(=O)[C@@H]5C[C@@H]5[C@]4(C)[C@H]3CC[C@@]21C [CPA, cyprotherone acetate] | did not affect | Neither CMA nor CPA had any effect on the growth | 0.7 fold | did not alter Wnt4 transcript levels | no effect | 2 fold | failed to affect Rankl transcript levels at all | no effect | failed to increase Rankl transcript levels | decreased | decreased | anti‐androgenic activity | decreased | –
C[C@]12CCC(=O)C=C1[C@@H]1C[C@@H]1[C@H]1[C@@H]3[C@@H]4C[C@@H]4[C@@]4(CCC(=O)O4)[C@@]3(C)CC[C@@H]12 [DSP, drospirenone] | suppressed | failed to affect | 1.4 fold | did not alter Wnt4 transcript levels | no effect | did not alter Wnt4 transcript levels | failed to affect Rankl transcript levels at all | no effect | failed to increase Rankl transcript levels | no effect | no effect | anti‐androgenic activity | decreased | decreased
